Reference: patent publication US9062028B2, “Bicyclic nitrogen containing heteroaryl TGR5 receptor modulators” (Bristol-Myers Squibb Company, priority 2011, dated 2015)

Biological target: T1, recombinant human TGR5 (Homo sapiens, UniProt Q8TDU6)
T1 construct: expressed in transfected cells
T1 sequence (Q8TDU6 1-330): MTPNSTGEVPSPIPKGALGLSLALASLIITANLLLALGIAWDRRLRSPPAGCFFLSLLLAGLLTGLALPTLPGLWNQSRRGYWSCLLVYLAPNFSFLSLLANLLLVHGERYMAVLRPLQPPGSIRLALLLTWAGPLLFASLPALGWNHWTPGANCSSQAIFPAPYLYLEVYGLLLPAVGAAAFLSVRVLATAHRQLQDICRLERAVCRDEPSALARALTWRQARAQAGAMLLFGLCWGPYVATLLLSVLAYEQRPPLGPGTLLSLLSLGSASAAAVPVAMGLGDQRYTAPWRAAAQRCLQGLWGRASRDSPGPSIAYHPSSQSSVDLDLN
Test: cAMP assay (cAMP accumulation, HTRF) in CHOK1 cells stably expressing TGR5
Type: cell-based
Conditions: CHOK1 cells stably expressing human TGR5, 30 minutes at RT, 1% DMSO
Description: The in vitro modulation of recombinant human TGR5 was determined as follows.
A human TGR5 expression construct of human TGR5 was integrated into the genome of a CHOK1 cell line (Invitrogen). Once a stable CHOK1 cell line was generated, the cells were incubated for 5-10 minutes in culture medium consisting of F-12 (Invitrogen#11765-047) supplemented with 10% fetal bovine serum.
On the day of the cAMP accumulation assay, cells stably expressing the […] TGR5 construct were centrifuged at 1000 rpm for 5 minutes. The medium was aspirated and the cells were resuspended in 5 mL of assay buffer (phosphate-buffered saline with Ca^2+ and Mg^2+, Invitrogen#14040). The cells were counted using 1:2 dilution and then adjusted to 0.4-0.5×10^6 cells/mL in assay buffer, if necessary. Isobutylmethylxanthine (IBMX, Sigma#I5879) was added via a 1:5000 dilution to make a 0.1 mM final concentration and then 10 μL of the media were transferred to each well of a 384 well poly-D-lysine coated solid white plate (BD #35-6661) pre-dotted with 100 nL of with the desired concentration of compound added from a concentrated stock dissolved in dimethyl sulfoxide (DMSO) to give a final concentration of 1% DMSO in the assay. The plates were covered and incubated for 30 minutes at RT. cAMP accumulation was measured using the CisBio homogeneous time resolved fluorescence (HTRF) assay kit (#62AM2PEC) following the manufacturer's protocol. Briefly, 5 μl each of the cAMP-HTRF fluorescence detection reagents were added to each well, and the samples were incubated for at least one hour at room temperature. Fluorescence was excited at 320 nm and measured at 665 and 620 nm using the Envision instrument (Perkin Elmer), the fluorescence ratio of 665/620 was calculated and converted to nanomolar concentrations of cAMP in each well by interpolation from a cAMP standard curve. The concentration-response curves and EC50 values were calculated with a four parameter logistic curve fit equation utilizing Excel/XLfit software (Microsoft and IDBS). The EC50 value was calculated as the concentration of agonist which increased the cAMP concentration to a value halfway between the baseline and the maximum.

Compared with `Cc1cccc(OCCCC(=O)N2CCCc3c(-c4cnn(Cc5c(F)cc(C(=O)NCS(=O)(=O)O)cc5Cl)c4)cccc32)c1C` [Example 179, (3-Chloro-4-((4-(1-(4-(2,3-dimethylphenoxy)butanoyl)-1,2,3,4-tetrahydroquinolin-5-yl)-1H-pyrazol-1-yl)methyl)-5-fluorobenzamido)methanesulfonic acid], `Cc1c(Cl)cccc1OCCCC(=O)N1CCCc2c(-c3cnn(CC(=O)O)c3)cccc21` [Example 197, 2-(4-(1-(4-(3-Chloro-2-methylphenoxy)butanoyl)-1,2,3,4-tetrahydroquinolin-5-yl)-1H-pyrazol-1-yl)acetic acid] is 48-fold higher in EC50: 45 nM for the first, 2150 nM for the second.

First: Cc1cccc(OCCOC(=O)N2CCOc3c(-c4cnn(Cc5cccc(C(=O)NCCS(=O)(=O)O)c5)c4)cccc32)c1C [Example 182, 2-(3-((4-(4-((2-(2,3-Dimethylphenoxy)ethoxy)carbonyl)-3,4-dihydro-2H-benzo[b] [1,4]oxazin-8-yl)-1H-pyrazol-1-yl)methyl)benzamido) ethanesulfonic acid]
Second: Cc1c(Cl)cccc1OCCCC(=O)N1CC2CC2c2c(-c3cnn(Cc4cccc(C(=O)NCS(=O)(=O)O)c4)c3)cccc21 (centres unmarked) [Example 222, (3-((4-(3-(4-(3-Chloro-2-methylphenoxy)butanoyl)-1a,2,3,7b-tetrahydro-1H-cyclopropa[c]quinolin-7-yl)-1H-pyrazol-1-yl)methyl)benzamido)methanesulfonic acid]
The EC50 of the first is 11-fold higher: 589 nM for the first, 55 nM for the second. The second is the more potent here.

`Cc1cccc(OCCCC(=O)N2CCCc3c(-c4cccc(COC(=O)NCC(C)(C)C(=O)O)c4)cccc32)c1C` [Example 257, 3-((3-(1-(4-(2,3-Dimethylphenoxy)butanoyl)-1,2,3,4-tetrahydroquinolin-5-yl)benzyloxy)carbonylamino)-2,2-dimethylpropanoic acid] and `Cc1cccc(OCCCC(=O)N2CCCc3c(-c4cccc(COC(=O)NCC(F)(F)C(=O)O)c4)cccc32)c1C` [Example 297, 3-((3-(1-(4-(2,3-Dimethylphenoxy)butanoyl)-1,2,3,4-tetrahydroquinolin-5-yl)benzyloxy)carbonylamino)-2,2-difluoropropanoic acid] are within 1.5-fold of each other in EC50: 682 nM for the first, 687 nM for the second.

Compared with `Cc1cccc(OCCCC(=O)N2CCCc3c(-c4cccc(COC(=O)N[C@@H](CC(=O)O)C(=O)O)c4)cccc32)c1C` [Example 268, (S)-2-((3-(1-(4-(2,3-Dimethylphenoxy)butanoyl)-1,2,3,4-tetrahydroquinolin-5-yl)benzyloxy)carbonylamino)succinic acid], `Cc1cccc(OCCCC(=O)N2CCCc3c(-c4cccc(COC(=O)N[C@H](CO)C(=O)O)c4)cccc32)c1C` [Example 282, (R)-2-((3-(1-(4-(2,3-Dimethylphenoxy)butanoyl)-1,2,3,4-tetrahydroquinolin-5-yl)benzyloxy)carbonylamino)-3-hydroxypropanoic acid] is 7.6-fold lower in EC50: 5020 nM for the first, 664 nM for the second.

`Cc1cccc(OCCCC(=O)N2CCCc3c(-c4cccc(COC(=O)NCC(C)C(=O)O)c4)cccc32)c1C` (centres unmarked) [Example 270, 3-((3-(1-(4-(2,3-Dimethylphenoxy)butanoyl)-1,2,3,4-tetrahydroquinolin-5-yl)benzyloxy)carbonylamino)-2-methylpropanoic acid] and `Cc1cccc(OCCCC(=O)N2CCCc3c(-c4cccc(COC(=O)NC(C)CC(=O)O)c4)cccc32)c1C` (centres unmarked) [Example 275, 3-((3-(1-(4-(2,3-Dimethylphenoxy)butanoyl)-1,2,3,4-tetrahydroquinolin-5-yl)benzyloxy)carbonylamino) butanoic acid] are the same in EC50: 608 nM for the first, 608 nM for the second.

Compared with `Cc1cccc(OCCCC(=O)N2CCCc3c(-c4cccc(COC(=O)NCC[C@H](O)C(=O)O)c4)cccc32)c1C` [Example 273, (S)-4-((3-(1-(4-(2,3-Dimethylphenoxy)butanoyl)-1,2,3,4-tetrahydroquinolin-5-yl)benzyloxy)carbonylamino)-2-hydroxybutanoic acid], `Cc1cccc(OCCCC(=O)N2CCCc3c(-c4cccc(COC(=O)NC(CCS)C(=O)O)c4)cccc32)c1C` (centres unmarked) [Example 289, 2-((3-(1-(4-(2,3-Dimethylphenoxy)butanoyl)-1,2,3,4-tetrahydroquinolin-5-yl)benzyloxy)carbonylamino)-4-mercaptobutanoic acid] is 4.3-fold higher in EC50: 646 nM for the first, 2810 nM for the second.

`Cc1cccc(OCCCC(=O)N2CCCc3c(-c4cccc(COC(=O)NC(Cc5c[nH]cn5)C(=O)O)c4)cccc32)c1C` (centres unmarked) [Example 283, 2-((3-(1-(4-(2,3-Dimethylphenoxy)butanoyl)-1,2,3,4-tetrahydroquinolin-5-yl)benzyloxy)carbonylamino)-3-(1H-imidazol-4-yl)propanoic acid] and `Cc1cccc(OCCCC(=O)N2CCCc3c(-c4cccc(COC(=O)N[C@H](Cc5c[nH]cn5)C(=O)O)c4)cccc32)c1C` [Example 288, (R)-2-((3-(1-(4-(2,3-Dimethylphenoxy)butanoyl)-1,2,3,4-tetrahydroquinolin-5-yl)benzyloxy)carbonylamino)-3-(1H-imidazol-4-yl)propanoic acid] are within 1.5-fold of each other in EC50: 3180 nM for the first, 3950 nM for the second.

Compared with `Cc1cccc(OCCCC(=O)N2CCCc3c(-c4cccc(COC(=O)N[C@@H](C)CC(=O)O)c4)cccc32)c1C` [Example 302, (S)-3-((3-(1-(4-(2,3-Dimethylphenoxy)butanoyl)-l,2,3,4-tetrahydroquinolin-5-yl)benzyloxy)carbonylamino) butanoic acid], `Cc1cccc(OCCCC(=O)N2CCCc3c(-c4cccc(COC(=O)NC(CP(=O)(O)O)C(=O)O)c4)cccc32)c1C` (centres unmarked) [Example 319, 2-((3-(1-(4-(2,3-Dimethylphenoxy)butanoyl)-1,2,3,4-tetrahydroquinolin-5-yl)benzyloxy)carbonylamino)-3-phosphonopropanoic acid] is 6.4-fold higher in EC50: 593 nM for the first, 3820 nM for the second.

Compared with `Cc1cccc(OCCCC(=O)N2CCCc3c(-c4cccc(COC(=O)N[C@@H](Cc5cncn5C)C(=O)O)c4)cccc32)c1C` [Example 316, (S)-2-((3-(1-(4-(2,3-Dimethylphenoxy)butanoyl)-1,2,3,4-tetrahydroquinolin-5-yl)benzyloxy)carbonylamino)-3-(1-methyl-1H-imidazol-5-yl) propanoic acid], `Cc1cccc(OCCCC(=O)N2CCCc3c(-c4cccc(COC(=O)N[C@@H](Cc5ccc(OP(=O)(O)O)cc5)C(=O)O)c4)cccc32)c1C` [Example 324, (S)-2-((3-(1-(4-(2,3-Dimethylphenoxy)butanoyl)-1,2,3,4-tetrahydroquinolin-5-yl)benzyloxy)carbonylamino)-3-(4-(phosphonooxy)phenyl)propanoic acid] is 5.3-fold higher in EC50: 638 nM for the first, 3390 nM for the second. The first is the more potent here.

Going from `Cc1c(Cl)cccc1OCCOC(=O)N1CC(O)COc2c(-c3cnn(Cc4c(F)cc(C(=O)O)cc4Cl)c3)cccc21` (centres unmarked) [Example 334, 3-Chloro-4-((4-(5-((2-(3-chloro-2-methylphenoxy)ethoxy)carbonyl)-3-hydroxy-2,3,4,5-tetrahydrobenzo[b][1,4]oxazepin-9-yl)-1H-pyrazol-1-yl)methyl)-5-fluorobenzoic acid] to `Cc1c(Cl)cccc1OCCOC(=O)N1CC(F)(F)COc2c(-c3cnn(Cc4c(F)cc(C(=O)O)cc4Cl)c3)cccc21` [Example 336, 3-Chloro-4-((4-(5-((2-(3-chloro-2-methylphenoxy)ethoxy)carbonyl)-3,3-difluoro-2,3,4,5-tetrahydrobenzo[b][1,4]oxazepin-9-yl)-1H-pyrazol-1-yl)methyl)-5-fluorobenzoic acid], the EC50 falls from 1260 nM to 173 nM (7.3-fold). The second is the more potent here.
